From patent US4429127A, “Quinoline carboxylic acid derivative” (Kyorin Pharmaceutical Co., Ltd., priority 1981, dated 1984)
≈ marks a conversion by molar mass, not a printed value. Like-named read-outs stand apart in the source and are kept apart here.

What was measured:
[1] = test system: Streptococcus pyogenes IID692; assay: In vitro antibacterial activity (MIC, agar dilution); assay type: cell-based
Procedure: (§1) The minimum inhibitory concentration (MIC) of the compound (I) was determined by an agar dilution technique (the standard method of Japan Society of Chemotherapy) against standard strains of gram-positive and gram-negative bacteria.
(§2) Inoculum size: 10^8 cells/ml

Shigella sonnei IID969 = assay: as above; assay type: cell-based; details: inoculum 10^8 cells/ml
Procedure: as §1, §2

[2] = test system: Salmonella enteritidis IID604; assay: as above; assay type: cell-based; details: Salmonella enterica
Procedure: as §1, §2

[3] = test system: Yersinia enterocolitica IID981; assay: as above; assay type: cell-based; details: inoculum 10^8 cells/ml
Procedure: as §1, §2

[4] = test system: Alcaligenes faecalis 0104002; assay: as above; assay type: cell-based; details: inoculum 10^8 cells/ml
Procedure: as §1, §2

S. pneumoniae IID552 = assay: as above; assay type: cell-based; details: Streptococcus pneumoniae
Procedure: as §1, §2

[5] = test system: Pseudomonas aeruginosa V-1; assay: as above; assay type: cell-based; details: V1
Procedure: as §1, §2

S. faecalis IID682 = assay: as above; assay type: cell-based; details: Enterococcus faecalis
Procedure: as §1, §2

[6] = test system: Klebsiella pneumoniae IFO3512; assay: as above; assay type: cell-based
Procedure: as §1, §2

[7] = test system: Haemophilus influenzae IID986; assay: as above; assay type: cell-based
Procedure: as §1, §2

E. coli ATCC10536 = assay: as above; assay type: cell-based; details: Escherichia coli
Procedure: as §1, §2

[8] = test system: Citrobacter freundii IID976; assay: as above; assay type: cell-based; details: inoculum 10^8 cells/ml
Procedure: as §1, §2

P. mirabilis IID994 = assay: as above; assay type: cell-based; details: Proteus mirabilis, inoculum 10^8 cells/ml
Procedure: as §1, §2

S. epidermidis IID866 = assay: as above; assay type: cell-based; details: Staphylococcus epidermidis, inoculum 10^8 cells/ml
Procedure: as §1, §2

[9] = test system: Staphylococcus aureus 209P; assay: as above; assay type: cell-based
Procedure: as §1, §2

P. morganii IID602 = assay: as above; assay type: cell-based; details: Morganella morganii, inoculum 10^8 cells/ml
Procedure: as §1, §2

[10] = test system: Acinetobacter enitratus IID876; assay: as above; assay type: cell-based; details: inoculum 10^8 cells/ml
Procedure: as §1, §2

[11] = test system: Enterobacter cloacae IID977; assay: as above; assay type: cell-based; details: inoculum 10^8 cells/ml
Procedure: as §1, §2

Proteus vulgaris IFO3167 = assay: as above; assay type: cell-based
Procedure: as §1, §2

E. coli NIHJ JC-2 = assay: as above; assay type: cell-based; details: Escherichia coli, NIHJJC2
Procedure: as §1, §2

[12] = test system: S. aureus IID670 (Terajima); assay: as above; assay type: cell-based; details: Staphylococcus aureus
Procedure: as §1, §2

P. aeruginosa IFO12689 = assay: as above; assay type: cell-based; details: Pseudomonas aeruginosa
Procedure: as §1, §2

S. pyogenes S-8 = assay: as above; assay type: cell-based; details: Streptococcus pyogenes, S8
Procedure: as §1, §2

[13] = test system: Bacillus subtilis PCI 219; assay: as above; assay type: cell-based; details: PCI219
Procedure: as §1, §2

[14] = test system: Serratia marcescens IID618; assay: as above; assay type: cell-based; details: inoculum 10^8 cells/ml
Procedure: as §1, §2

gram-negative bacteria [15] = assay: In vitro antibacterial activity against gram-negative bacteria (in words); assay type: cell-based; details: for Antibacterial activity on gram-negative bacteria, in words: in vitro
Procedure: as §1

Streptococcus spp. = assay: In vitro antibacterial activity against Streptococcus spp. (in words); assay type: cell-based
Procedure: as §1

gram-positive bacteria [16] = assay: In vitro antibacterial activity against gram-positive bacteria (in words); assay type: cell-based
Procedure: as §1

[17] = test system: Staphylococcus aureus Smith; assay: MIC against the infecting strain (Table 2); assay type: cell-based
Procedure: as §1

E. coli ML4707 [18] = assay: MIC against the infecting strain (Table 2); assay type: cell-based; details: Escherichia coli, ML4707
Procedure: as §1

gram-positive bacteria [19] = details: background; cited from earlier work
gram-negative bacteria [20] = details: background; cited from earlier work
[21] = test system: Staphylococcus aureus Smith; assay: In vivo antibacterial activity, systemic infection in mice; design: species or system mice (male, ICR); details: Staphylococcus aureus, 168 h
Procedure: (§3) The in vivo antibacterial activity of the compound (I) was determined in systemic infection in mice. The systemic infections were produced in male mice ICR (body weight, 19±2 g) by inoculating intraperitoneally with Staphylococcus aureus Smith and E. coli ML4707. The compounds were administered orally in divided doses at 0 and 4 hrs. after infection. The therapeutic effect of drugs was judged from the number of mice surviving after 7 days of observation. A comparison of in vivo antibacterial activity was made on the basis of the […] effective dose (ED50) calculated by the method of Litchfield and Wilcoxon.

E. coli ML4707 [22] = assay: as above; design: species or system mice (male, ICR); details: Escherichia coli
Procedure: as §3

[23] = Streptococcus pyogenes IID692, inoculum 10^8 cells/ml, read-out: MIC
[24] = Salmonella enteritidis IID604, inoculum 10^8 cells/ml, read-out: MIC
[25] = S. pneumoniae IID552, inoculum 10^8 cells/ml, read-out: MIC
[26] = Pseudomonas aeruginosa V-1, inoculum 10^8 cells/ml, read-out: MIC
[27] = S. faecalis IID682, inoculum 10^8 cells/ml, read-out: MIC
[28] = Staphylococcus aureus 209P, inoculum 10^8 cells/ml, read-out: MIC
[29] = Proteus vulgaris IFO3167, inoculum 10^8 cells/ml, read-out: MIC
[30] = S. aureus IID670 (Terajima), inoculum 10^8 cells/ml, read-out: MIC
[31] = P. aeruginosa IFO12689, inoculum 10^8 cells/ml, read-out: MIC
[32] = S. pyogenes S-8, inoculum 10^8 cells/ml, read-out: MIC
[33] = Bacillus subtilis PCI 219, inoculum 10^8 cells/ml, read-out: MIC

Structure (SMILES) | MIC [1, 23] [µg/mL] | MIC (Shigella sonnei IID969) [µg/mL] | MIC [2, 24] [µg/mL] | MIC (S. pneumoniae IID552; [25]) [µg/mL] | MIC [5, 26] [µg/mL] | MIC (S. faecalis IID682; [27]) [µg/mL] | MIC ([7]; Haemophilus influenzae, IID986) [µg/mL] | MIC [9, 28] [µg/mL] | MIC (Proteus vulgaris IFO3167; [29]) [µg/mL] | MIC [12, 30] [µg/mL] | MIC (P. aeruginosa IFO12689; [31]) [µg/mL] | MIC (S. pyogenes S-8; [32]) [µg/mL] | MIC [13, 33] [µg/mL] | Susceptibility of Streptococcus spp., in words (Streptococcus spp.) | Antibacterial activity on gram-positive bacteria, in words (gram-positive bacteria [16]) | MIC ([6]; Klebsiella pneumoniae, IFO3512) [µg/mL] | MIC (E. coli ATCC10536; ATCC10536) [µg/mL] | MIC (E. coli NIHJ JC-2) [µg/mL] | Activity against most gram-positive bacteria, in words (gram-positive bacteria [19]) | Effectiveness in therapy of infections due to gram-negative bacteria, in words (gram-negative bacteria [20]) | also measured
CCn1cc(C(=O)O)c(=O)c2cc(F)c(N3CCNCC3)c(F)c21 [Metabolite, 1-ethyl-6,8-difluoro-1,4-dihydro-4-oxo-7-(1-piperazinyl)quinoline-3-carboxylic acid] | 3.13 (≈ 9.28 µM) | 0.05 (≈ 0.148 µM) | 0.1 (≈ 0.296 µM) | 6.25 (≈ 18.5 µM) | 0.78 (≈ 2.31 µM) | 3.13 (≈ 9.28 µM) | 0.025 (≈ 0.0741 µM) | 0.78 (≈ 2.31 µM) | 0.05 (≈ 0.148 µM) | 0.78 (≈ 2.31 µM) | 1.56 (≈ 4.62 µM) | 12.5 (≈ 37.1 µM) | 0.2 (≈ 0.593 µM) |  |  |  |  |  |  |  | MIC [3]: 0.1 µg/mL (≈ 0.296 µM); MIC [4]: 0.78 µg/mL (≈ 2.31 µM); MIC ([6]; Klebsiella pneumoniae IFO3512, inoculum 10^8 cells/ml, read-out: MIC): 0.05 µg/mL (≈ 0.148 µM); MIC (E. coli ATCC10536; E. coli ATCC10536, inoculum 10^8 cells/ml, read-out: MIC): 0.05 µg/mL (≈ 0.148 µM); MIC [8]: 0.1 µg/mL (≈ 0.296 µM); MIC (P. mirabilis IID994): 0.05 µg/mL (≈ 0.148 µM); MIC (S. epidermidis IID866): 0.78 µg/mL (≈ 2.31 µM); MIC (P. morganii IID602): 0.1 µg/mL (≈ 0.296 µM); MIC [10]: 0.78 µg/mL (≈ 2.31 µM); MIC [11]: 0.1 µg/mL (≈ 0.296 µM); MIC (E. coli NIHJ JC-2; E. coli NIHJ JC-2, inoculum 10^8 cells/ml, read-out: MIC): 0.05 µg/mL (≈ 0.148 µM); MIC [14]: 0.1 µg/mL (≈ 0.296 µM); Activity of the metabolite against gram-negative bacteria, in words (gram-negative bacteria [15]; general statement): superior activity against gram-negative bacteria
CCn1cc(C(=O)O)c(=O)c2ccc(C)nc21 [NA, Nalidixic acid] |  | 1.56 (≈ 6.72 µM) |  |  |  |  | 1.56 (≈ 6.72 µM) |  |  |  |  |  |  | not susceptible | inactive on many strains of gram-positive bacteria | 1.56 (≈ 6.72 µM) | 3.13 (≈ 13.5 µM) | 3.13 (≈ 13.5 µM) | only weak activities against most gram-positive bacteria | highly effective in the therapy of infections due to gram-negative bacteria | MIC ([1]; Streptococcus pyogenes, IID692): > 100 µg/mL; MIC [2]: 12.5 µg/mL (≈ 53.8 µM); MIC (S. pneumoniae IID552; IID552): > 100 µg/mL; MIC ([5]; Pseudomonas aeruginosa): 100 µg/mL (≈ 431 µM); MIC (S. faecalis IID682; IID682): > 100 µg/mL; MIC ([9]; Staphylococcus aureus, 209P): 100 µg/mL (≈ 431 µM); MIC (Proteus vulgaris IFO3167; Proteus vulgaris, IFO3167): 3.13 µg/mL (≈ 13.5 µM); MIC ([12]; IID670): > 100 µg/mL; MIC (P. aeruginosa IFO12689; IFO12689): > 100 µg/mL; MIC (S. pyogenes S-8): > 100 µg/mL; MIC ([13]; Bacillus subtilis): 6.25 µg/mL (≈ 26.9 µM); MIC ([17]; Staphylococcus aureus): 25 µg/mL (≈ 108 µM); MIC (E. coli ML4707 [18]): 3.13 µg/mL (≈ 13.5 µM); Antibacterial activity on gram-negative bacteria, in words (gram-negative bacteria [15]): exerted antibacterial activity mainly on gram-negative bacteria; ED50 ([21]; po): 635 mg/kg; ED50 (E. coli ML4707 [22]; ML4707, po, 168 h): 38.3 mg/kg
CCn1cc(C(=O)O)c(=O)c2cnc(N3CCNCC3)nc21 [PPA, Pipemidic acid] | > 100 | 1.56 (≈ 5.14 µM) | 12.5 (≈ 41.2 µM) | > 100 | 12.5 (≈ 41.2 µM) | > 100 |  | 25 (≈ 82.4 µM) | 3.13 (≈ 10.3 µM) | 25 (≈ 82.4 µM) | 25 (≈ 82.4 µM) | > 100 | 6.25 (≈ 20.6 µM) | not susceptible | inactive on many strains of gram-positive bacteria | 1.56 (≈ 5.14 µM) | 1.56 (≈ 5.14 µM) | 1.56 (≈ 5.14 µM) | only weak activities against most gram-positive bacteria | highly effective in the therapy of infections due to gram-negative bacteria | MIC ([7]; Haemophilus influenzae IID986, inoculum 10^8 cells/ml, read-out: MIC): 3.13 µg/mL (≈ 10.3 µM); MIC ([17]; Staphylococcus aureus Smith, read-out: MIC): 12.5 µg/mL (≈ 41.2 µM); MIC (E. coli ML4707 [18]): 1.56 µg/mL (≈ 5.14 µM); Antibacterial activity on gram-negative bacteria, in words (gram-negative bacteria [15]): exerted antibacterial activity mainly on gram-negative bacteria; ED50 ([21]; mice, oral at 0 and 4 hrs. after infection, challenge 2.4 × 10^5 cells/animal in BHI containing mucin, 7 days survival, read-out: ED50): 231 mg/kg; ED50 (E. coli ML4707 [22]; ML4707, 168 h, mice, oral at 0 and 4 hrs. after infection, challenge 1.2 × 10^7 cells/animal in saline, 7 days survival, read-out: ED50): 38.9 mg/kg
CCn1cc(C(=O)O)c(=O)c2cnc(N3CCCC3)nc21 [piromidic acid] |  |  |  |  |  |  |  |  |  |  |  |  |  |  |  |  |  |  | only weak activities against most gram-positive bacteria | highly effective in the therapy of infections due to gram-negative bacteria | 
